Consider nine molecules from article PMC11012799 (Molecules, 2024).

Values after ≈ are worked out from the molar mass of the structure shown. Structures can show the parent of a compound that is named as a salt. Where two headings read alike, the source gives them in different places.

In one assay the test system is L929 cells. The assay is described as follows: cells. Format: cell-based, murine. The conditions noted are these: read-out: IC50 (µM) L929. The procedure:
(§1) Considering our previous research and the literature reports on the antitumor activity of aziridine derivatives, aziridine phosphines (1–4) and aziridine phosphine oxides (5–9) were tested to investigate their potential anticancer activity. The in vitro effects on cell viability were assessed using the 3-(4,5-dimethylthiazol-2-yl)-2,5-diphenyltetrazolium bromide (MTT) assay on non-tumorigenic murine fibroblasts (L929) as well as two cancer cell lines: human cervical epithelioid carcinoma (HeLa) cells and endometrial adenocarcinoma (Ishikawa) cells.
(§2) Cell viability inhibition: The in vitro effects on cell viability were determined using the 3-(4,5-dimethylthiazol-2-yl)-2,5-diphenyltetrazolium bromide (MTT) assay on non-tumorigenic murine fibroblasts L929 (ATTC®—CCL-1) as well as two cancer cell lines: human cervical epithelioid carcinoma HeLa cells (ATTC®—CCL-2™) and endometrial adenocarcinoma Ishikawa cells (ECACC 99040201). Cells were cultured on 96-well microplates at a density of 1 × 10^4 cells/well following the international in Dulbecco’s Modified Eagle’s Medium (DMEM, Biowest) supplemented with 10% fetal bovine serum (FBS, Biowest, Nuaillé, France), 100 U/mL of penicillin, and 100 μg/mL of streptomycin (Biowest, Nuaillé, France). After overnight incubation at 37 °C and 5% CO2, the growth medium was removed and 100 μL of fresh media with two-fold dilutions of the tested compounds at concentrations of 3.125–100 μM were added. […] Untreated cells in medium were used as a positive control, while a clear culture medium served as a negative control.

Another assay relates to HeLa cells. The assay is described as follows: cells. Format: cell-based, human. The conditions noted are these: for IC50: read-out: IC50 (µM) HeLa; for selectivity index (SI) HeLa: efficacy against HeLa versus normal fibroblasts L929, SI > 1.0 = greater efficacy against cancer cells. The procedure: as §1, §2
A further assay has as its system Ishikawa cells. The assay is described as follows: cells. Format: cell-based, human. The conditions noted are these: for IC50: read-out: IC50 (µM) Ishikawa; for selectivity index (SI) Ishikawa: efficacy against Ishikawa versus normal fibroblasts L929, SI > 1.0 = greater efficacy against cancer cells. Here is the method: as §1, §2
In assay [1] the test system is Staphylococcus aureus ATCC 6538. The assay is described as follows: MIC, two-fold microdilution (EUCAST), S. aureus reference strain. Type of assay: cell-based. The conditions noted are these: read-out: MIC (µM) Staphylococcus aureus ATCC 6538. The text has this: (§3) A panel of reference bacteria, including Escherichia coli NCTC 8196, Staphylococcus aureus ATCC 6538, Klebsiella pneumoniae ATCC 13883, and Pseudomonas aeruginosa NCTC 6749, was used to assess the antibacterial activity of the nine tested aziridine phosphines (1–4) and aziridine phosphine oxides (5–9). The two-fold microdilution method, following EUCAST guidelines, was used to determine a minimal inhibitory concentration (MIC) of each compound, as presented in Table S1.
(§4) Antibacterial activity: The in vitro antibacterial activity of nine tested aziridine phosphines (1–4) and aziridine phosphine oxides (5–9) was evaluated against reference bacterial strains (E. coli NCTC 8196, S. aureus ATCC 6538, K. pneumoniae ATCC 13883, P. aeruginosa NCTC 6749) and 12 S. aureus clinical isolates, including two methicillin-resistant isolates (MRSA, D15 and D17) obtained from infected patients hospitalized at the Oncological Hospital in Lodz (Poland). All strains were kept frozen at −80 °C in Tryptic Soy Broth with 15% glycerol. The minimal inhibitory concentration (MIC) is defined as the lowest concentration of the compound that prevents visible growth of bacteria using the microdilution method followed the EUCAST guidelines. Each compound was added to 96-well microplates in two-fold dilutions at concentrations from 3.125 to 100 μM in Mueller–Hinton broth. […] Bacterial culture was added into wells at a density of 5 × 10^5 CFU mL^−1, and plates were incubated at 37 °C for 18 h. As a positive control, an untreated bacterial culture was used, and a clear culture medium served as a negative control. The optical density at OD600 was measured using the SpectraMax i3 Multi-Mode Platform (Molecular Devices, San Jose, CA, USA). Ciprofloxacin hydrochloride (CIP, Sigma-Aldrich, Darmstadt, Germany) was used as a reference antimicrobial drug.

In assay [2] the test system is Escherichia coli NCTC 8196. The assay is described as follows: MIC, two-fold microdilution (EUCAST), E. coli reference strain. Type of assay: cell-based. The conditions noted are these: read-out: MIC (µM) Escherichia coli NCTC 8196.
Source text: as §3, §4

In assay [3] the test system is Pseudomonas aeruginosa NCTC 6749. The assay is described as follows: MIC, two-fold microdilution (EUCAST), P. aeruginosa reference strain. The conditions noted are these: read-out: MIC (µM) Pseudomonas aeruginosa NCTC 6749. Type of assay: cell-based.
Source text: as §3, §4

Assay [4] relates to clinical S. aureus strains. The assay is described as follows: MIC, microdilution, 12 clinical S. aureus strains. Format: cell-based, Staphylococcus aureus. The conditions noted are these: panel of 12 clinical isolates (naso-pharynx, ulcers/furuncles, bones), highest tested concentration 100 µM.
Source text: as §3, §4

Assay [5] has as its system Klebsiella pneumoniae ATCC 13883. The assay is described as follows: MIC, two-fold microdilution (EUCAST), K. pneumoniae reference strain. The conditions noted are these: read-out: MIC (µM) Klebsiella pneumoniae ATCC 13883. Format: cell-based.
Source text: as §3, §4

Setting [6] is: MTT, 24 h treatment, IC50 ± SD, three independent experiments.
Setting [7] is: Staphylococcus aureus, ATCC6538, 18 h.
The mark [8] stands for this setting: Escherichia coli, NCTC8196, 18 h.
Setting [9] is: Pseudomonas aeruginosa, NCTC6749, 18 h.
Where [10] appears, read: Klebsiella pneumoniae, ATCC13883, 18 h.
The mark [11] stands for this setting: tested range 3.125–100 µM, 37 °C, 18 h.

For `N.N.[Cl][Pt][Cl]` [CisPt, cisplatin, reference compound], the IC50 is 26.2 ± 7.5 µM in the assay on L929 cells (setting [6]), 10.4 ± 4.4 µM in the assay on HeLa cells (setting [6]) and 17.3 ± 5.2 µM in the assay with Ishikawa cells (setting [6]).
Turning to `CC(C)[C@H]1CN1c1ccccc1P(=O)(c1ccccc1)c1ccccc1` [Compound 6], the minimum inhibitory concentration (MIC) in assay [1] (setting [7]) is 50 µM (≈ 18.1 µg/mL); in assay [2] (setting [8]), above 100 µM; in assay [3] (setting [9]), above 100 µM; in assay [4] (Staphylococcus aureus) it was 100 µM (≈ 36.1 µg/mL); in assay [4], 100 µM (≈ 36.1 µg/mL); in assay [5] (setting [10]), above 100 µM. In addition, the IC50 turned out to be 13.7 ± 3.1 µM with L929 cells (Mus musculus, L929, 24 h); 40.7 ± 11.1 µM with HeLa cells (Homo sapiens, 24 h); 16.6 ± 2.5 µM with Ishikawa cells (Homo sapiens, Ishikawa, 24 h). For the same molecule, in the assay with HeLa cells, the “selectivity index (SI) HeLa” value is below 1. For the same molecule, the “selectivity index (SI) Ishikawa” value with Ishikawa cells was below 1.
For the molecule `CC(C)[C@@H]1CN1c1ccccc1P(c1ccccc1)c1ccccc1` [Compound 1], the minimal inhibitory concentration (MIC) in assay [1] (setting [7]) is 50 µM (≈ 17.3 µg/mL); in assay [2] (setting [8]) it was above 100 µM; in assay [3] (setting [9]), above 100 µM; in assay [5] (setting [10]) it was above 100 µM. For the same molecule, the IC50 is 68.1 ± 11.2 µM in the assay on L929 cells (Mus musculus, L929, 24 h); above 100 µM in the assay on HeLa cells (Homo sapiens, 24 h); 13.9 ± 7.1 µM with Ishikawa cells (Homo sapiens, Ishikawa, 24 h). Besides, the “selectivity index (SI) HeLa” value with HeLa cells is below 1. For the same molecule, in the assay with Ishikawa cells, the “selectivity index (SI) Ishikawa” value was 4.9.
As for `c1ccc([C@H]2CN2c2ccccc2P(c2ccccc2)c2ccccc2)cc1` [Compound 4], the MIC is 50 µM (≈ 19 µg/mL) in assay [1] (setting [7]), above 100 µM in assay [2] (setting [8]), above 100 µM in assay [3] (setting [9]) and above 100 µM in assay [5] (setting [10]). Further, the concentration for half-maximal inhibition (IC50) was 22 ± 3.4 µM in the assay with L929 cells (Mus musculus, L929, 24 h); 39.2 ± 6.7 µM in the assay on HeLa cells (Homo sapiens, 24 h); above 100 µM in the assay with Ishikawa cells (Homo sapiens, Ishikawa, 24 h). Besides, the “selectivity index (SI) HeLa” value with HeLa cells is below 1. Also, the “selectivity index (SI) Ishikawa” value with Ishikawa cells is recorded as below 1.
On to `O=P(c1ccccc1)(c1ccccc1)c1ccccc1N1C[C@@H]1c1ccccc1` [Compound 8], for which the minimum inhibitory concentration (MIC) in assay [1] (setting [7]) was 50 µM (≈ 19.8 µg/mL); in assay [2] (setting [8]) it was above 100 µM; in assay [3] (setting [9]), above 100 µM; in assay [5] (setting [10]), above 100 µM. Further, the IC50 in the assay with L929 cells (Mus musculus, L929, 24 h) came to 17 ± 4.4 µM; in the assay on HeLa cells (Homo sapiens, 24 h), 19.6 ± 3.2 µM; in the assay with Ishikawa cells (Homo sapiens, Ishikawa, 24 h) it was 23.4 ± 7.6 µM. In the assay on HeLa cells, the “selectivity index (SI) HeLa” value is below 1. In the assay on Ishikawa cells, the “selectivity index (SI) Ishikawa” value is below 1.
For the molecule `O=C(O)c1cn(C2CC2)c2cc(N3CCNCC3)c(F)cc2c1=O` [CIP, Ciprofloxacin hydrochloride, reference compound], the MIC in assay [1] (Staphylococcus aureus, ATCC6538, tested range 3.125–100 µM, 37 °C, 18 h) came to 1.6 µM; in assay [2] (Escherichia coli, NCTC8196, tested range 3.125–100 µM, 37 °C, 18 h), 0.04 µM; in assay [3] (Pseudomonas aeruginosa, NCTC6749, tested range 3.125–100 µM, 37 °C, 18 h), 2.5 µM; in assay [5] (Klebsiella pneumoniae, ATCC13883, tested range 3.125–100 µM, 37 °C, 18 h) it was 0.2 µM.
For the molecule `CC(C)C[C@H]1CN1c1ccccc1P(c1ccccc1)c1ccccc1` [Compound 3], the MIC in assay [1] (setting [7]) was 50 µM (≈ 18 µg/mL); in assay [2] (setting [8]), above 100 µM; in assay [3] (setting [9]) it was above 100 µM; in assay [5] (setting [10]), above 100 µM. Further, the IC50 with L929 cells (Mus musculus, L929, 24 h) was above 100 µM; in the assay with HeLa cells (Homo sapiens, 24 h), 30.3 ± 4.5 µM; with Ishikawa cells (Homo sapiens, Ishikawa, 24 h), above 100 µM. Moreover, the “selectivity index (SI) HeLa” value with HeLa cells is recorded as above 3.3.
For “(2S)-2-diphenylphosphinoyl-2-phenylaziridine [Compound 9]”, the MIC was 50 µM in assay [1] (setting [11]), above 100 µM in assay [2] (setting [11]), above 100 µM in assay [3] (setting [11]) and above 100 µM in assay [5] (setting [11]). Moreover, the half-maximal inhibitory concentration (IC50) with L929 cells (setting [6]) is above 100 µM; with HeLa cells (setting [6]), 48.8 ± 12.3 µM; in the assay with Ishikawa cells (setting [6]), above 100 µM.
`CC(C)[C@H]1CN1c1ccccc1P(c1ccccc1)c1ccccc1` [Compound 2]: the minimum inhibitory concentration (MIC) was 50 µM (≈ 17.3 µg/mL) in assay [1] (setting [7]), above 100 µM in assay [2] (setting [8]), above 100 µM in assay [3] (setting [9]) and above 100 µM in assay [5] (setting [10]). Further, the half-maximal inhibitory concentration (IC50) in the assay with L929 cells (Mus musculus, L929, 24 h) is above 100 µM; in the assay on HeLa cells (Homo sapiens, 24 h) it was above 100 µM; in the assay on Ishikawa cells (Homo sapiens, Ishikawa, 24 h) it was 14.8 ± 6.5 µM. The “selectivity index (SI) Ishikawa” value in the assay with Ishikawa cells is above 6.7.
